These are literature values, as cited in patent US5989583A, “Solid lipid compositions of lipophilic compounds for enhanced oral bioavailability” (Pharmos Ltd., priority 1996, dated 1999).

One series relates to periodontal disease. The settings on record: supplements containing CoQ10.
The subject of series [1] is patients with severe heart failure. The settings on record: 40 patients with severe heart failure, long term treatment.
The test system of series [2] is cultured cerebellar neurons. The settings on record: age-related and excitotoxin-induced degeneration.
The conditions of series [3]: for Water solubility (in words): water / aqueous solutions.
For series [4] the following is noted: 20 mg THC in a sesame oil formulation.

`COC1=C(OC)C(=O)C(C/C=C(\C)CC/C=C(\C)CC/C=C(\C)CC/C=C(\C)CC/C=C(\C)CC/C=C(\C)CC/C=C(\C)CC/C=C(\C)CC/C=C(\C)CCC=C(C)C)=C(C)C1=O` [CoQ10, 2,3-dimethoxy-5-methyl-6-decaprenyl-1,4-benzoquinone]: the “oral bioavailability / systemic availability” value is reported as “very low”. For the same compound, in the series with periodontal disease, the “Effect on periodontal disease” value was “the progress of the disease was not only stopped, but accelerated tissue healing was initiated as well”. In addition, the “patients showing improvement in their condition” value in series [1] is 69%. For the same compound, the “Protection of neurons against degeneration” value in series [2] was “protect cultured cerebellar neurons against age-related and excitotoxin-induced degeneration”. Further, the “Water solubility (in words)” value in series [3] is “practically insoluble in water”.

Consider `CCCCCCC(C)(C)c1cc(O)c2c(c1)OC(C)(C)[C@H]1CC=C(CO)C[C@H]21` [Dexanabinol, (+)-(3S, 4S) -7-hydroxy-Δ^6-tetra hydrocannabinol-1,1-dimetylheptyl], for which the “oral bioavailability / systemic availability” value is given as “poor oral bioavailability”. In addition, in series [3] (water), the Water solubility entry is “less than 50 μg/ml”.

In the case of `CCCCCc1cc(O)c2c(c1)OC(C)(C)[C@@H]1CCC(C)=C[C@@H]21` [THC, tetrahydrocannabinol], in series [4], the “maximal plasma levels after oral dosing” value was “around 10 ng/ml”. As to `C=C(C)[C@@H]1CCC(C)=C[C@H]1c1c(O)cc(CCCCC)cc1O` [cannabidiol], the “Water solubility (in words)” value in series [3] is recorded as “a few micrograms/ml or less”. `CCCCCc1cc(O)c2c(c1)OC(C)(C)c1ccc(C)cc1-2` [cannabinol]: the “Water solubility (in words)” value in series [3] was “a few micrograms/ml or less”. Turning to `CCCCCc1cc(O)c2c(c1)OC(C)(C)[C@@H]1CCC(C)=C[C@@H]21` [Δ^1 -THC, Δ^1 -tetrahydrocannabinol], the “Water solubility (in words)” value in series [3] is reported as “a few micrograms/ml or less”.

`CCCCCc1cc(O)c2c(c1)OC(C)(C)[C@@H]1CC=C(C)C[C@@H]21` [Δ^6 -THC, Δ^6 -tetrahydrocannabinol]: the “Water solubility (in words)” value in series [3] is “a few micrograms/ml or less”.
